Counter-ions that a name gives are not always drawn. Like-named read-outs stand apart in the source and are kept apart here.

One experiment relates to Target C. The experiment is described as follows: RT-qPCR splicing assay, gene panel, Target C canonical junction (CJ) mRNA. The experiment is classed as cell-based. Particulars: Homo sapiens, read-out: Target C CJ IC50. The essentials:
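A673 (DMEM/10% FBS) or K562 (IMDM/10% FBS) cells were treated 24 h at 37 °C with an 11-point 3-fold dilution series, top final 10 uM, DMSO ≤0.25%. Lysates underwent one-step RT-qPCR for the canonical-junction isoform with GAPDH, GUSB or PPIA as housekeeper. ΔΔCt versus DMSO was converted to RQ (2^−ΔΔCt), then to percent response.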

Experiment [1] relates to HiBiT-tagged MYB protein in K562 cells. The experiment is described as follows: HiBit protein abundance assay, MYB. The experiment is classed as cell-based, human. The note with it: K562 HiBiT-modified cells, 24 hours, luminescence. As for the experimental part: (§1) Compounds described herein were used to screen for effects on quantitative protein abundance using a HiBit assay system (Promega). Quantitative protein abundance was determined by measuring the protein levels of HiBit-tagged protein targets expressed in cell culture via luminescence using the Nano-Glo HiBiT Lytic Detection System, which uses a split complementation assay format to reconstitute NanoBiT enzyme to generate a luminescent signal. A protein abundance assay was developed such that endogenous protein targets could be modified with the HiBiT peptide tag and their abundance could be assessed after compound treatment. Briefly, K562 cell lines containing a HiBiT-modification were treated with various compounds described herein (e.g., compounds of Formulas (I), (II), or (III)). After treatment for 24 hours, the protein abundance of a specific target was determined by measuring luminescence. • Promega Nano-Glo HiBiT Lytic Detection System (cat #N3030) • Corning 384-well TC-treated microplates (cat #3570) • Synthego Engineered Cells Knock-In Clones [table] Cells were maintained in IMDM with 10% FBS. Before the assay, cells were diluted with phenolphthalein-free growth media (IMDM+1% FBS media) and were seeded in a 384-well plate at a density of 10000 cells/well (for each cell line listed in Table 6). Each compound was prepared as a 10-point 3-fold serial dilution in DMSO with the top dose at a final concentration of 10 μM in the well. Unmodified K562 cells were added at the previously specified density with DMSO to serve as an assay baseline and positive control (PC) and DMSO only with the respective modified cell lines was added to the negative control (NC) columns. Final DMSO concentration was kept at or below 0.25%. Treated cell plates were placed in an incubator at 37° C. with 5% CO2 for 24 hours. After 24 hours, 25 μL of Complete HiBit Lytic reagent was added to each well at room temperature (e.g. one plate requiring 10 mL Lytic Buffer, 100 μL LgBiT Protein, 200 μL Lytic Substrate), shaken for 5 minutes at 600 RPM, then left to sit for 10 minutes for signal to stabilize before reading on a Spark Cyto plate reader (Tecan) with a 500 ms measurement time. To determine compound effects on protein abundance of each target in Table 6, the percent response for each respective cell line was calculated at each compound concentration as follows: For the normalized response at each concentration, a four-parameter logistical regression was fit to the data and the response was interpolated at the 50% value to determine a concentration for protein abundance at 50% (IC50) the untreated control.

The subject of experiment [2] is HiBiT-tagged HTT protein in K562 cells. The experiment is described as follows: HiBit protein abundance assay, HTT. The experiment is classed as cell-based, human. The note with it: K562 HiBiT-modified cells, 24 hours, luminescence. The procedure:
as §1

Where [3] appears, read: decrease in CJ mRNA levels, larger panel of genes, Table 3.

With `Cc1c(O)c(-c2ccc3nn(C4CCNCC4)cc3n2)cc2cn(C)nc12` [Compound 109, 2,7-dimethyl-5-[2-(4-piperidyl)pyrazolo[4,3-b]pyridin-5-yl]indazol-6-ol], the IC50 in the experiment with Target C (setting [3]) is 0.1 to 1 µM; in experiment [1], 0.1 to 1 µM; in experiment [2], under 0.1 µM.
Regarding `Cc1cn2nc(-c3ccc4nn(C5CCNCC5)cc4c3)cc(C)c2n1` [Compound 192, 2,8-dimethyl-6-[2-(4-piperidyl)indazol-5-yl]imidazo[1,2-b]pyridazine], the IC50 with Target C (setting [3]) is 0.1 to 1 µM; in experiment [1], 0.1 to 1 µM; in experiment [2], under 0.1 µM.
Regarding `Cn1cc2cc(-c3ccc4nn(C5CCNCC5)cc4c3)cc(F)c2n1` [Compound 105, 7-fluoro-2-methyl-5-[2-(4-piperidyl)indazol-5-yl]indazole], the IC50 (in the experiment with Target C (setting [3]); in experiment [1]; in experiment [2]) was 0.1 to 1 µM throughout.
As to `CCN1CCC(n2cc3cc(-c4cc(C)c5nc(C)cn5n4)cc(F)c3n2)CC1` [Compound 146, 6-[2-(1-ethyl-4-piperidyl)-7-fluoro-indazol-5-yl]-2,8-dimethyl-imidazo[1,2-b]pyridazine], the IC50 in the experiment with Target C (setting [3]) was 0.1 to 1 µM; in experiment [1], 0.1 to 1 µM; in experiment [2], under 0.1 µM.
`Cc1nc2c(C)cc(-c3cc(F)c4nn(C5CCNCC5)cc4c3)cc2o1` [Compound 137, 6-[7-fluoro-2-(4-piperidyl)indazol-5-yl]-2,4-dimethyl-1,3-benzoxazole]: the results for the IC50 (in the experiment with Target C (setting [3]); in experiment [1]; in experiment [2]) were 0.1 to 1 µM, 0.1 to 1 µM and under 0.1 µM, respectively.
As to `Cc1cn2nc(-c3cc(O)c4nn(C5CCNCC5)cc4c3)cc(C)c2n1` [Compound 156, 5-(2,8-dimethylimidazo[1,2-b]pyridazin-6-yl)-2-(piperidin-4-yl)-2H-indazol-7-ol], the IC50 with Target C (setting [3]) lay in the range of 1 to 10 µM; in experiment [1] it was 1 to 10 µM; in experiment [2], 0.1 to 1 µM.
Regarding `CCN1CCC(n2cc3cc(-c4cc(C)c5nc(C)cn5n4)cc(F)c3n2)CC12CC2` (stereo not drawn) [Compound 177, 6-[2-(4-ethyl-4-azaspiro[2.5]octan-7-yl)-7-fluoro-indazol-5-yl]-2,8-dimethyl-imidazo[1,2-b]pyridazine], the IC50 in the experiment with Target C (setting [3]) is under 0.1 µM; in experiment [1] it was 0.1 to 1 µM; in experiment [2] it was under 0.1 µM.
As for `Cc1cn2nc(-c3cc(F)c4nn(C5CCN(C)CC5)cc4c3)cc(C)c2n1` [Compound 150, 6-[7-fluoro-2-(1-methyl-4-piperidyl)indazol-5-yl]-2,8-dimethyl-imidazo[1,2-b]pyridazine], the figures for the half-maximal inhibitory concentration (IC50) (in the experiment on Target C (setting [3]); in experiment [1]; in experiment [2]) were 0.1 to 1 µM, 0.1 to 1 µM and under 0.1 µM, respectively.
`Cc1cn2nc(-c3cc(F)c4nn([C@H]5CCNC[C@@H]5F)cc4c3)cc(C)c2n1` [Compound 167, 6-(7-fluoro-2-((3S,4S)-3-fluoropiperidin-4-yl)-2H-indazol-5-yl)-2,8-dimethylimidazo[1,2-b]pyridazine]: the IC50 in the experiment with Target C (setting [3]) was in the range of 0.1 to 1 µM; in experiment [1], 1 to 10 µM; in experiment [2], 0.1 to 1 µM.
Take `Cc1cn2cc(-c3cc(F)c4nn(C5CCNCC5)cc4c3)cc(F)c2n1` [Compound 129, 7-fluoro-5-(8-fluoro-2-methylimidazo[1,2-a]pyridin-6-yl)-2-(piperidin-4-yl)-2H-indazole]: the IC50 with Target C (setting [3]) is 0.1 to 1 µM; in experiment [1] it was 0.1 to 1 µM; in experiment [2], under 0.1 µM.
`Cc1cn2nc(-c3cc4cn(C5CCNCC5)nc4c(OCc4ccccc4)n3)cc(C)c2n1` [Compound 153, 6-[7-benzyloxy-2-(4-piperidyl)pyrazolo [3,4-c]pyridin-5-yl]-2,8-dimethyl-imidazo[1,2-b]pyridazine]: the results for the half-maximal inhibitory concentration (IC50) (with Target C (setting [3]); in experiment [1]; in experiment [2]) were over 10 µM, 1 to 10 µM and 1 to 10 µM, respectively.
Turning to `CCN1CCC(n2cc3cc(-c4cc(F)c5nn(C)cc5c4)cc(F)c3n2)CC1` [Compound 104, 2-(1-ethyl-4-piperidyl)-7-fluoro-5-(7-fluoro-2-methyl-indazol-5-yl)indazole], the concentration for half-maximal inhibition (IC50) with Target C (setting [3]) lay within 1 to 10 µM; in experiment [1], 0.1 to 1 µM; in experiment [2] it was 0.1 to 1 µM.
As for `Cc1cn2nc(-c3cc(F)c4nn(C5CCN(CCO)CC5)cc4c3)cc(C)c2n1` [Compound 160, 2-[4-[5-(2,8-dimethylimidazo[1,2-b]pyridazin-6-yl)-7-fluoro-indazol-2-yl]-1-piperidyl]ethanol], the IC50 with Target C was 0.1 to 1 µM; in experiment [1] it was 0.1 to 1 µM; in experiment [2] it was under 0.1 µM.
As for `Cn1cc2cc(-c3cc(Cl)c4nn(C5CCNCC5)cc4n3)c(O)cc2n1` [Compound 141], the IC50 (in the experiment on Target C (setting [3]); in experiment [1]; in experiment [2]) was over 10 µM throughout.
As for `Cc1cn2nc(-c3cc(F)c4nn([C@@H]5CCNC[C@H]5F)cc4c3)cc(C)c2n1` [Compound 168, 6-(7-fluoro-2-((3R,4R)-3-fluoropiperidin-4-yl)-2H-indazol-5-yl)-2,8-dimethylimidazo [1,2-b]pyridazine], the results for the IC50 (with Target C (setting [3]); in experiment [1]; in experiment [2]) were 0.1 to 1 µM, 0.1 to 1 µM and under 0.1 µM, respectively.
As to `Cc1cn2nc(-c3cc(F)c4nn(C5CCNCC5)cc4c3)cc(C)c2n1` [Compound 122, 6-(7-fluoro-2-(piperidin-4-yl)-2H-indazol-5-yl)-2,8-dimethylimidazo [1,2-b]pyridazine hydrochloride salt], the IC50 (in the experiment with Target C; in experiment [1]; in experiment [2]) was under 0.1 µM each time.
Consider `Cn1cc2cc(-c3cc(F)c4nn(C5CCNC6(CC6)C5)cc4c3)cc(F)c2n1` (stereo not drawn) [Compound 108, 2-(4-azaspiro[2.5]octan-7-yl)-7-fluoro-5-(7-fluoro-2-methyl-indazol-5-yl)indazole], for which the IC50 in the experiment with Target C (setting [3]) was in the range of 1 to 10 µM; in experiment [1], 0.1 to 1 µM; in experiment [2], 0.1 to 1 µM.
As to `Cc1cn2nc(-c3cc(F)c4nn([C@H]5CCNC6(CC6)C5)cc4c3)cc(C)c2n1` [Compound 172], the IC50 (with Target C (setting [3]); in experiment [1]; in experiment [2]) was under 0.1 µM each time.
With `COc1cc(-c2cc3cn(C)nc3cc2O)nc2cn(C3CCNCC3)nc12` [Compound 140, 5-[7-methoxy-2-(4-piperidyl)pyrazolo[4,3-b]pyridin-5-yl]-2-methyl-indazol-6-ol], the IC50 (with Target C (setting [3]); in experiment [1]; in experiment [2]) was 1 to 10 µM throughout.
With `Cc1c(O)c(-c2cc(F)c3nn(C4CCNCC4)cc3c2)cc2cn(C)nc12` [Compound 126, 5-[7-fluoro-2-(4-piperidyl)indazol-5-yl]-2,7-dimethyl-indazol-6-ol], the 50% inhibitory concentration (IC50) in the experiment with Target C (setting [3]) is 1 to 10 µM; in experiment [1], over 10 µM; in experiment [2], 1 to 10 µM.
For the compound `Cn1cc2cc(-c3ccc4nn(C5CCNCC5)cc4n3)c(O)c(F)c2n1` [Compound 107, 7-fluoro-2-methyl-5-[2-(4-piperidyl)pyrazolo [4,3-b]pyridin-5-yl]indazol-6-ol], the half-maximal inhibitory concentration (IC50) (in the experiment with Target C (setting [3]); in experiment [1]; in experiment [2]) was 0.1 to 1 µM in each case.
Turning to `Cc1cn2nc(-c3cc(F)c4nn(C5CCNCC5F)cc4c3)cc(C)c2n1` (stereo not drawn) [Compound 166, 6-[7-fluoro-2-(3-fluoro-4-piperidyl)indazol-5-yl]-2,8-dimethyl-imidazo [1,2-b]pyridazine], the IC50 with Target C (setting [3]) was 0.1 to 1 µM; in experiment [1] it was 0.1 to 1 µM; in experiment [2] it was under 0.1 µM.
Take `Cc1cc(-n2cc3cc(N4CCNCC4)cc(F)c3n2)cc2cn(C)nc12` [Compound 117, 2-(2,7-dimethylindazol-5-yl)-7-fluoro-5-piperazin-1-yl-indazole]: the IC50 was over 10 µM with Target C (setting [3]), 1 to 10 µM in experiment [1] and 1 to 10 µM in experiment [2].

The values are drawn from patent publication US20250082633A1, “COMPOUNDS AND METHODS FOR MODULATING SPLICING” (REMIX THERAPEUTICS INC., priority 2021, published 2025).
